Where “and” joins values, the source holds several entries; their conditions need not be identical. Equal values may be shown once. Read-outs that look alike come from different tables or passages of the source.
How the values were obtained:
IL-17A = IL-17A levels by ELISA in stimulated human peripheral blood mononuclear cells; assay type: cell-based; settings: Homo sapiens, PBMC
Experimental: (§1) CD2, CD3, and CD28 antibody-coated beads from the T-cell activation/expansion kit (Miltenyi Biotec) were added to the PBMC at a bead-to-cell ratio of 1:2.
(§2) The mixture of PBMCs and beads were seeded into the wells of the round-bottom 96-well plate at a concentration of 2×10^5 cells/well in a total volume of 200 μL. The cells were cultured for 72 hours at 37° C. and 5% CO2 and then supernatants were collected and IL-17A and IL-22 levels were measured by ELISA. […] The final compound concentration ranged from 30,000 nM to 0.005 nM and the final DMSO concentration per well was 0.3%. PBMCs were seeded at approximately 2×10^5 cells/well in the wells of the 96-well tissue culture plate in a total volume of 190 μL. The plate was incubated for 1 hour at 37° C. and 5% CO2. […] The cells were then cultured for 24 hours at 37° C. and 5% CO2. The supernatant was collected and CXCL10 levels were measured by ELISA.

CXCL10 = CXCL10 levels by ELISA in IFN-γ stimulated human peripheral blood mononuclear cells; assay type: cell-based; settings: human PBMC
Experimental: The impact of Examples 23, 80, and 101 on IL-17A, IL-22, and CXCL10 levels was analyzed in cryopreserved human peripheral blood mononuclear cells (PBMC) by ELISA. […] For IL-17A and IL-22 assays, Examples 23, 80, and 101 were serially diluted from 10 mM in DMSO and further diluted in assay media to 100× the required final concentration, of which, 2 μL was added per well to a round-bottom 96-well tissue culture plate where the final DMSO concentration per well was 0.1%. CD2, CD3, and CD28 antibody-coated beads from the T-cell activation/expansion kit (Miltenyi Biotec) were added to the PBMC at a bead-to-cell ratio of 1:2.
The mixture of PBMCs and beads were seeded into the wells of the round-bottom 96-well plate at a concentration of 2×10^5 cells/well in a total volume of 200 μL. The cells were cultured for 72 hours at 37° C. and 5% CO2 and then supernatants were collected and IL-17A and IL-22 levels were measured by ELISA. For the CXCL10 assay, Examples 23, 80, and 101 were serially diluted from 10 mM in DMSO and further diluted in assay media to 100× the required final concentration, of which 2 μL was added per well to a 96-well tissue culture plate. The final compound concentration ranged from 30,000 nM to 0.005 nM and the final DMSO concentration per well was 0.3%. PBMCs were seeded at approximately 2×10^5 cells/well in the wells of the 96-well tissue culture plate in a total volume of 190 μL. The plate was incubated for 1 hour at 37° C. and 5% CO2. The cells were then stimulated with IFN-γ (15 ng/mL final concentration) in a volume of 10 μL. The cells were then cultured for 24 hours at 37° C. and 5% CO2. The supernatant was collected and CXCL10 levels were measured by ELISA.

IL-22 = IL-22 levels by ELISA in stimulated human peripheral blood mononuclear cells; assay type: cell-based; settings: Homo sapiens, PBMC
Experimental: as §1, §2

[1] = Pharmacokinetics and plasma concentration of Example 101 in Lewis rats after oral administration (CIA study); assay type: in vivo, Lewis rat; settings: Day 21, Group 4 (CIA + GSK620)

CNC(=O)c1cc(C(=O)NC2CC2)cn(Cc2ccccc2)c1=O [GSK620]
IC50 (IL-17A; Test Subject 1, read-out: IL-17A IC50): 80.5 nM | IC50 (IL-17A; Test Subject 2, read-out: IL-17A IC50): 59.7 nM | IC50 (IL-17A; Test Subject 3, read-out: IL-17A IC50): 139 nM | IC50 (IL-17A; mean of test subjects, read-out: IL-17A IC50 Mean): 93.2 nM | IC50 (CXCL10; Test Subject 1, read-out: CXCL10 IC50): > 30000 nM | IC50 (CXCL10; Test Subject 2, read-out: CXCL10 IC50): > 30000 nM | IC50 (CXCL10; Test Subject 3, read-out: CXCL10 IC50): > 30000 nM | IC50 (CXCL10; mean of test subjects, read-out: CXCL10 IC50 Mean): > 30000 nM | IC50 (IL-22; Test Subject 1, read-out: IL-22 IC50): 231 nM | IC50 (IL-22; Test Subject 2, read-out: IL-22 IC50): 21.6 nM | IC50 (IL-22; Test Subject 3, read-out: IL-22 IC50): 106 nM | IC50 (IL-22; mean of test subjects, read-out: IL-22 IC50 Mean): 120 nM | Plasma concentration ([1]; per animal): 1590 ng/mL and 4170 ng/mL and 3070 ng/mL and 2740 ng/mL and 1760 ng/mL and 3230 ng/mL and 3450 ng/mL and 2540 ng/mL | concentration at 21 day ([1]; Lewis, rat, plasma, oral, read-out: Mean Plasma Concentration): 2820 ng/mL
